Results: patent EP0108351A2, “Use of substituted malonic-acid derivatives as pesticides” (BAYER AG, priority 1982, dated 1984)

Key:
Format in all cases: in vivo
[1] = test system: Plutella maculipennis; experiment: Plutella test (cabbage leaves dipped, caterpillars placed on them); details: cabbage leaves (Brassica oleracea) dipped; concentration and time not stated; compared with prior art
Description: Lösungsmittel: 3 Gewichtsteile Dimethylformamid Emulgator : -1 Gewichtsteil Alkylarylpolyglykolether
(§1) Zur Herstellung einer zweckmäßigen Wirkstoffzubereitung vermischt man 1 Gewichtsteil Wirkstoff mit der angegebenen Menge Lösungsmittel und der angegebenen Menge Emulgator und verdünnt das Konzentrat mit Wasser auf die gewünschte Konzentration.
Kohlblätter (Brassica oleracea) werden durch Tauchen in die Wirkstoffzubereitung der gewünschten Konzentration behandelt und mit Raupen der Kohlschabe (Plutella maculipennis) besetzt, solange die Blätter noch feucht sind.
Nach der gewünschten Zeit wird die Abtötung in % bestimmt. Dabei bedeutet 100 %, daß alle Raupen abgetötet wurden; 0 % bedeutet, daß keine Raupen abgetötet wurden.

[2] = test system: Tetranychus urticae; experiment: Tetranychus test (resistant), infested bean plants dipped; details: bean plants (Phaseolus vulgaris) dipped; all stages of mites; concentration and time not stated; compared with prior art
Description: Lösungsmittel: 3 Gewichtsteile Dimethylformamid Emulgator: . 1 Gewichtsteil Alkylarylpolyglykolether
as §1
Bohnenpflanzen (Phaseolus vulgaris), die stark von allen Entwicklungsstadien der gemeinen Spinnmilbe oder Bohnenspinnmilbe (Tetranychus urticae) befallen sind, werden durch Tauchen in die Wirkstoffzubereitung der gewünschten Konzentration behandelt.
Nach der gewünschten Zeit wird die Abtötung in % bestimmt. Dabei bedeutet 100 %, daß alle Spinnmilben abgetötet wurden; 0 % bedeutet, daß keine Spinnmilben abgetötet wurden.

[3] = test system: Myzus pesicae; experiment: Limit concentration test / root-systemic action (Myzus); details: compound mixed into soil, cabbage; leaves infested after 7 days, evaluated after 2 more days; concentration not given
Description: Testinsekt: Myzus pesicae Lösungsmittel: 3 Gewichtsteile Aceton Emulgator: 1 Gewichtsteil Alkylarylpolyglykolether
(§2) Zur Herstellung einer zweckmäßigen Wirkstoffzubereitung vermischt man 1 Gewichtsteil Wirkstoff mit der angegebenen Menge Lösungsmittel, gibt die angegebene Menge Emulgator zu und verdünnt das Konzentrat mit Wasser auf die gewünschte Konzentration.
Die Wirkstoffzubereitung wird innig mit Boden vermischt. Dabei spielt die Konzentration des Wirkstoffs in der Zubereitung praktisch keine Rolle, entscheidend ist allein die Wirkstoffgewichtsmenge pro Volumeneinheit Boden, welche in ppm (= mg/1) angegeben wird. Man füllt den behandelten Boden in Töpfe und bepflanzt diese mit Kohl (Brassica oleracea). Der Wirkstoff kann so von den Pflanzenwurzeln aus dem Boden aufgenommen und in die Blätter transportiert werden.
Für den Nachweis des wurzelsystemischen Effektes werden nach 7 Tagen ausschließlich die Blätter mit den obengenannten Testtieren besetzt. Nach weiteren 2 Tagen erfolgt die Auswertung durch Zählen oder Schätzen der toten Tiere. Aus den Abtötungszahlen wird die wurzelsystemische Wirkung des Wirkstoffs abgeleitet. Sie ist 100 %, wenn alle Testtiere abgetötet sind und 0 %, wenn noch genau so viele Testinsekten leben wie bei der unbehandelten Kontrolle.

[4] = test system: Phorbia antiqua (im Boden); experiment: Limit concentration test / soil insects; details: compound mixed into soil; insects added after 24 hours, evaluated after 2 to 7 more days; concentration not given
Description: Testinsekt: Phorbia antiqua (im Boden) Lösungsmittel: 3 Gewichtsteile Aceton Emulgator: 1 Gewichtsteil Alkylarylpolyglykolether
as §2
Die Wirkstoffzubereitung wird innig mit dem Boden vermischt. Dabei spielt die Konzentration des Wirkstoffs in der Zubereitung praktisch keine Rolle, entscheidend ist allein die Wirkstoffgewichtsmenge pro Volumeneinheit Boden, welche in ppm (= mg/1) angegeben wird. Man füllt den Boden in Töpfe und läßt diese bei Raumtemperatur stehen.
Nach 24 Stunden werden die Testtiere in den behandelten Boden gegeben und nach weiteren 2 bis 7 Tagen wird der Wirkungsgrad des Wirkstoffs durch Auszählen der toten und lebenden Testinsekten in % bestimmt, Der Wirkungsgrad ist 100 %, wenn alle Testinsekten abgetötet worden sind, er ist O %, wenn noch genau so viele Testinsekten leben wie bei der unbehandelten Kontrolle.

[5] = test system: Lucilia cuprina res.-Larven; experiment: Test with Lucilia cuprina res. larvae; details: Wirkstoffkonzentration 1000 ppm, after 24 hours, read-out: Abtötung
Experimental: Emulgator: 35 Gewichtsteile Ethylenglkolmonomethylether 35 Gewichtsteile Nonylphenolpolyglykolether
Zur Herstellung einer zweckmäßigen Wirkstoffzubereitung vermischt man drei Gewichtsteile Wirkstott mit sieben Gewichtsteilen des oben angegebenen Lösungsmittel-Gemisches und verdünnt das so erhaltene Konzentrat mit Wasser auf die jeweils gewünschte Konzentration.
Etwa 20 Lucilia cuprina res.-Larven werden in ein Teströhrchen gebracht, welches ca. 1 cm^2 Pferdefleisch und 0,5 ml der Wirkstoffzubereitung enthält. Nach 24 Stunden wird der Abtötungsgrad bestimmt.

COC(C(N)=O)(C(N)=O)c1ccc(Cl)c(Cl)c1 [Beispiel 1, 2-(3,4-Dichlorphenyl)-2-methoxy-malonsäurediamid]
Wirksamkeit gegenüber dem Stand der Technik (Abtötung in %) [1]: überlegene Wirksamkeit gegenüber dem Stand der Technik | Wirksamkeit gegenüber dem Stand der Technik (Abtötung in %) [2]: überlegene Wirksamkeit gegenüber dem Stand der Technik | wurzelsystemische Wirkung gegenüber dem Stand der Technik [3]: überlegene Wirkung gegenüber dem Stand der Technik | Wirkungsgrad gegenüber dem Stand der Technik [4]: überlegene Wirkung gegenüber dem Stand der Technik

CNS(=O)(=O)OC(C(N)=O)(C(N)=O)c1ccc(Cl)c(Cl)c1 [Beispiel 5, 3,4-Dichlorphenylmethylsulfamoyloxymalonsäurediamid]
Wirksamkeit gegenüber dem Stand der Technik (Abtötung in %) [1]: überlegene Wirksamkeit gegenüber dem Stand der Technik | Wirksamkeit gegenüber dem Stand der Technik (Abtötung in %) [2]: überlegene Wirksamkeit gegenüber dem Stand der Technik

NC(=O)C(O)(C(=O)[O-])c1ccccc1.[Na+] (centres unmarked) [Beispiel 33, Mononatriumsalzes des Phenylhydroxymalonsäuremonoamids]
wurzelsystemische Wirkung gegenüber dem Stand der Technik [3]: überlegene Wirkung gegenüber dem Stand der Technik

CNC(=O)C(O)(C(N)=O)c1ccccc1 (centres unmarked) [Beispiel 27, Phenylhydroxymalonsäureamidmethylamid]
wurzelsystemische Wirkung gegenüber dem Stand der Technik [3]: überlegene Wirkung gegenüber dem Stand der Technik

NC(=O)C(OSC(F)(Cl)Cl)(C(N)=O)c1ccc(Cl)c(Cl)c1 [Beispiel 36, 3,4-Dichlorphenyl-dichlorfluormethylsulfenyloxy-malonsäurediamid]
Wirksamkeit gegenüber dem Stand der Technik (Abtötung in %) [1]: überlegene Wirksamkeit gegenüber dem Stand der Technik | Wirksamkeit gegenüber dem Stand der Technik (Abtötung in %) [2]: überlegene Wirksamkeit gegenüber dem Stand der Technik

CC(=O)NC(=O)C(O)(C(N)=O)c1ccc(Cl)c(Cl)c1 (centres unmarked) [Beispiel 38a, 3,4-Dichlorphenylhydroxymalonsäureamidacetylamid]
Wirksamkeit gegenüber dem Stand der Technik (Abtötung in %) [1]: überlegene Wirksamkeit gegenüber dem Stand der Technik | Wirkungsgrad gegenüber dem Stand der Technik [4]: überlegene Wirkung gegenüber dem Stand der Technik

CC(=O)NC(=O)C(OC(C)=O)(C(=O)NC(C)=O)c1ccc(Cl)c(Cl)c1 [Beispiel 40, 3,4-Dichlorphenyl-acetoxy-malonsäurebisacetylamid]
Wirksamkeit gegenüber dem Stand der Technik (Abtötung in %) [1]: überlegene Wirksamkeit gegenüber dem Stand der Technik | Wirksamkeit gegenüber dem Stand der Technik (Abtötung in %) [2]: überlegene Wirksamkeit gegenüber dem Stand der Technik | Wirkungsgrad gegenüber dem Stand der Technik [4]: überlegene Wirkung gegenüber dem Stand der Technik

NC(=O)C(OC(=O)c1ccccc1Cl)C(=O)Nc1ccc(Cl)c(Cl)c1 (centres unmarked) [Beispiel 2, 3,4-Dichlorphenyl-(2-chlorbenzoyloxy)-malonsäurediamid]
Wirksamkeit gegenüber dem Stand der Technik (Abtötung in %) [1]: überlegene Wirksamkeit gegenüber dem Stand der Technik

CC(=O)NC(=O)C(OC(C)=O)(C(N)=O)c1ccc(Cl)c(Cl)c1 (centres unmarked) [Beispiel 39, 3,4-Dichlorphenylacetoxy-malonsäureamidacetylamid]
Wirksamkeit gegenüber dem Stand der Technik (Abtötung in %) [1]: überlegene Wirksamkeit gegenüber dem Stand der Technik | Wirksamkeit gegenüber dem Stand der Technik (Abtötung in %) [2]: überlegene Wirksamkeit gegenüber dem Stand der Technik | Wirkungsgrad gegenüber dem Stand der Technik [4]: überlegene Wirkung gegenüber dem Stand der Technik

CC(=O)OC(C(N)=O)(C(N)=O)c1ccc(Cl)c(Cl)c1 [Beispiel 4, 3,4-Dichlorphenylacetoxymalonsäurediamid]
Wirksamkeit gegenüber dem Stand der Technik (Abtötung in %) [1]: überlegene Wirksamkeit gegenüber dem Stand der Technik

NC(=O)C(OC(=O)c1ccccc1)(C(N)=O)c1ccc(Cl)c(Cl)c1 [Beispiel 3, 3,4-Dichlorphenylbenzoyloxymalonsäurediamid]
Wirksamkeit gegenüber dem Stand der Technik (Abtötung in %) [1]: überlegene Wirksamkeit gegenüber dem Stand der Technik

NC(=O)C(O)(C(=O)NC=O)c1ccc(Cl)c(Cl)c1 (centres unmarked) [Beispiel 37, 3,4-Dichlorphenylhydroxymalonsäureamidformylamid]
Wirksamkeit gegenüber dem Stand der Technik (Abtötung in %) [1]: überlegene Wirksamkeit gegenüber dem Stand der Technik | Wirksamkeit gegenüber dem Stand der Technik (Abtötung in %) [2]: überlegene Wirksamkeit gegenüber dem Stand der Technik

CC(=O)NC(=O)C(O)(C(N)=O)c1ccccc1 (centres unmarked) [Beispiel 38, Phenylhydroxymalonsäureamidacetylamid]
Wirksamkeit gegenüber dem Stand der Technik (Abtötung in %) [1]: überlegene Wirksamkeit gegenüber dem Stand der Technik

C[Si](C)(C)OC(C(N)=O)(C(N)=O)c1ccc(Cl)c(Cl)c1 [Beispiel 47, 2-(3,4-Dichlorphenyl)-2-trimethylsilyloxy-malonsäurediamid]
Wirksamkeit gegenüber dem Stand der Technik (Abtötung in %) [1]: überlegene Wirksamkeit gegenüber dem Stand der Technik | Wirksamkeit gegenüber dem Stand der Technik (Abtötung in %) [2]: überlegene Wirksamkeit gegenüber dem Stand der Technik | mortality at 1000 µg/mL [5]: 100% | wurzelsystemische Wirkung gegenüber dem Stand der Technik [3]: überlegene Wirkung gegenüber dem Stand der Technik | Wirkungsgrad gegenüber dem Stand der Technik [4]: überlegene Wirkung gegenüber dem Stand der Technik

CC(=O)NC(=O)C(OC(=O)c1ccccc1)(C(=O)NC(C)=O)c1ccc(Cl)c(Cl)c1 [Beispiel 41, 3,4-Dichlorphenylbenzoyloxymalonsäurebisacetylamid]
Wirksamkeit gegenüber dem Stand der Technik (Abtötung in %) [1]: überlegene Wirksamkeit gegenüber dem Stand der Technik | Wirksamkeit gegenüber dem Stand der Technik (Abtötung in %) [2]: überlegene Wirksamkeit gegenüber dem Stand der Technik

CC(C)(C)NC(=O)C(O)(C(=O)NC(C)(C)C)c1ccccc1 [Beispiel 52, Phenylhydroxymalonsäure-bis-tert.-butylamid]
wurzelsystemische Wirkung gegenüber dem Stand der Technik [3]: überlegene Wirkung gegenüber dem Stand der Technik

C[Si](C)(C)NC(=O)C(O[Si](C)(C)C)(C(=O)N[Si](C)(C)C)c1ccc(Cl)c(Cl)c1 [Beispiel 48]
Wirksamkeit gegenüber dem Stand der Technik (Abtötung in %) [1]: überlegene Wirksamkeit gegenüber dem Stand der Technik | Wirksamkeit gegenüber dem Stand der Technik (Abtötung in %) [2]: überlegene Wirksamkeit gegenüber dem Stand der Technik | Wirkungsgrad gegenüber dem Stand der Technik [4]: überlegene Wirkung gegenüber dem Stand der Technik
